Test results as given in paper PMC4151304 (European journal of medicinal chemistry, 2012).

Key:
PRMT1 [1] = target: T1, PRMT1 (Rattus norvegicus, UniProt Q63009); test: Dialysis experiment and time-dependent inhibition; assay type: biochemical; conditions: dialysis and time-dependent inhibition (0, 1.5, 2.5, 4.0 μM)
PRMT4/CARM1 = target: T2, PRMT4/CARM1 (Mus musculus, UniProt Q9WVG6); test: Radioactive methyltransferase assay, CARM1; assay type: biochemical
T2 sequence (Q9WVG6 1-608): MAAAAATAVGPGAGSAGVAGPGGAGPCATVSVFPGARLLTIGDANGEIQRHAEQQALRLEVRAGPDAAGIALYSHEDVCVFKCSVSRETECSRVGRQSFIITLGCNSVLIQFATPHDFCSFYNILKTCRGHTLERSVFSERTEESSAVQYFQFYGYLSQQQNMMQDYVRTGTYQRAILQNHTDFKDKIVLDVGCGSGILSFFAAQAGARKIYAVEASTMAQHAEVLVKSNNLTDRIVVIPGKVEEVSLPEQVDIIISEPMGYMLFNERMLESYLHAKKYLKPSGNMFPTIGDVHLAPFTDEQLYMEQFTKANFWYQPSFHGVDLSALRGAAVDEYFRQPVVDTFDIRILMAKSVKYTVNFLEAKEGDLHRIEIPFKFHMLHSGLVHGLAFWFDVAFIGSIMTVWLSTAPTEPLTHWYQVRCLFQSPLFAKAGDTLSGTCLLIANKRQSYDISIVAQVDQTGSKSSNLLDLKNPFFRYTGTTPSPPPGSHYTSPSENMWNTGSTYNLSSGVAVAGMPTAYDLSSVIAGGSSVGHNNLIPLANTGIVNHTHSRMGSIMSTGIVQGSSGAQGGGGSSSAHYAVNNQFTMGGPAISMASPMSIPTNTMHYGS

PRMT1 [2] = target: T1, PRMT1; test: Radioactive methyltransferase assay, PRMT1; assay type: biochemical; conditions: for IC50: IC50, His6x-PRMT1 0.05 μM, 2 μM H4(1-20), 5 μM [14C]-SAM, 30°C
HeLa cells = test: Cell cycle assay by flow cytometry; assay type: cell-based; conditions: 48 h of treatment at 2.5 and 5 μM (data not shown)
PRMT1 Y152A = PRMT1 Y152A (Rattus norvegicus, UniProt Q63009, Y152A); test: Radioactive methyltransferase assay, PRMT1 mutant Y152A; assay type: biochemical; conditions: 4 μM inhibitor, 2 μM H4-20, 5 μM [14C]AdoMet
PRMT1 Y152A, sequence (Q63009 whole entry Y152A): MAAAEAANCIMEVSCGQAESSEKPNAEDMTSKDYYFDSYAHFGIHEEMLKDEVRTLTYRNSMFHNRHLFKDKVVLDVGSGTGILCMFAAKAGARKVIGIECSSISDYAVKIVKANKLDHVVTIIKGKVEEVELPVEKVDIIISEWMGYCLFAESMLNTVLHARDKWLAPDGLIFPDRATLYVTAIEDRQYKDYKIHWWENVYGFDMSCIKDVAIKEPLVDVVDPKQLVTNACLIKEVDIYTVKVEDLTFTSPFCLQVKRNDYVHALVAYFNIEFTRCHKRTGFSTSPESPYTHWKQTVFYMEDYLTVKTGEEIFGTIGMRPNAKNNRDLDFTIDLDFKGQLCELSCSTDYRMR

T1 sequence (Q63009 whole entry): as the sequence (Q63009 whole entry Y152A) above, with A152Y counted along it

SMILES	IC50 (PRMT1 [2])	also measured
CCn1/c(=C\C=C\C2=[N+](CC)c3cccc4cccc2c34)c2cccc3cccc1c32.[I-] [compound 11, 1-ethyl-2-[3-(1-ethylbenz[c,d]indol-2(1H)-ylidene)-1-propen-1-yl]-iodide]		reversible vs irreversible inhibition (PRMT1 [1]): reversible; IC50 (PRMT4/CARM1): ~100 µM; kinetic pattern of inhibition (PRMT1 [2]; steady-state kinetics, with regard to both H4 and AdoMet substrates): noncompetitive inhibitor; Sub-G1 population, indicative of apoptosis (HeLa cells): appearance of a hypodiploid peak (Sub-G1) was observed; inhibition of Y152A PRMT1 compared with wt-PRMT1 (PRMT1 Y152A): same potency as is for wt-PRMT1
CCCCn1/c(=C\C=C\C2=[N+](CCCC)c3cccc4cccc2c34)c2cccc3cccc1c32 [compound 12, 1-butyl-2-[3-(1-butyllbenz[c,d]indol-2(1H)-ylidene)-1-propen-1-yl]-iodide]	12 ± 0.5 µM	
CCN1/C(=C\C=C\C2=[N+](CC)c3ccccc3C2(C)C)C(C)(C)c2ccccc21 [compound 22]	284 ± 3.5 µM	
CCN1/C(=C/C=C/C2=[N+](CC)c3ccc4ccccc4c3C2(C)C)C(C)(C)c2c1ccc1ccccc21 [compound 25]	20.3 ± 0.2 µM	
CCCCN1/C(=C\C=C\C2=[N+](CCCC)c3ccc4ccccc4c3C2(C)C)C(C)(C)c2c1ccc1ccccc21 [compound 26]	18 ± 0.5 µM	

More lines, in order of falling IC50 (PRMT1 [2]), values ahead:

IC50 (PRMT1 [2])	SMILES	also measured
292 ± 40.1 µM	CC1(C)C(/C=C/C=C2/N(CCC[N+](C)(C)C)c3ccc(Br)cc3C2(C)C)=[N+](CCC[N+](C)(C)C)c2ccc(Br)cc21 [compound 29]	
15.5 ± 0.2 µM	C(/C=C/C1=[N+](CCCc2ccccc2)c2cccc3cccc1c23)=c1\c2cccc3cccc(c32)n1CCCc1ccccc1 [compound 13, 1-phenylpropyl-2-[3-(1-phenylpropylbenz[c,d]indol-2(1H)-ylidene)-1-propen-1-yl]iodide]	
14.3 ± 0.2 µM	CC1(C)C(/C=C/C=C2/N(CCCc3ccccc3)c3ccc4ccccc4c3C2(C)C)=[N+](CCCc2ccccc2)c2ccc3ccccc3c21 [compound 27]	
